Laboratory results published in the supplement of paper PMC10307832.

Experiments:
Test in all cases: relative viability (nuclei count vs DMSO), 5 days (fraction); higher = more cells survive
IU1-47 + Olaparib = compound: CC1=CC(=C(N1C2=CC=C(C=C2)Cl)C)C(=O)CN3CCCCC3 [IU1-47] + O=C(c1cc(Cc2n[nH]c(=O)c3ccccc23)ccc1F)N1CCN(C(=O)C2CC2)CC1 [Olaparib] (partner 8 µM)
Procedure, shortened: (§1)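 One day after seeding in 1536-well plates, lung cancer cell lines were dosed by pin tool. Dosing was either single-drug or a fixed anchor-drug dose plus five library-drug doses (not always all listed) in √10 steps. After 5 days, nuclei were stained in one fix-and-stain step and counted on 4× images, and relative viability is the nuclei count of treated wells over that of vehicle wells, given as the median of duplicate plates.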

IU1-47 + Pictilisib = compound: CC1=CC(=C(N1C2=CC=C(C=C2)Cl)C)C(=O)CN3CCCCC3 [IU1-47] + CS(=O)(=O)N1CCN(Cc2cc3nc(-c4cccc5[nH]ncc45)nc(N4CCOCC4)c3s2)CC1 [Pictilisib] (partner 1 µM)
Procedure, shortened: as §1

FG-4592 + Dasatinib = compound: Cc1nc(C(=O)NCC(=O)O)c(O)c2ccc(Oc3ccccc3)cc12 [FG-4592] + Cc1nc(Nc2ncc(C(=O)Nc3c(C)cccc3Cl)s2)cc(N2CCN(CCO)CC2)n1 [Dasatinib] (partner 0.075 µM)
Procedure, shortened: as §1

IU1-47 + Bortezomib = compound: CC1=CC(=C(N1C2=CC=C(C=C2)Cl)C)C(=O)CN3CCCCC3 [IU1-47] + CC(C)C[C@H](NC(=O)[C@H](Cc1ccccc1)NC(=O)c1cnccn1)B(O)O [Bortezomib] (partner 0.002 µM)
Procedure, shortened: as §1

| Cell Line | relative viability (IU1-47 + Olaparib; first compound 0.08 µM) | relative viability (IU1-47 + Olaparib; first compound 0.253 µM) | relative viability (IU1-47 + Olaparib; first compound 0.8 µM) | relative viability (IU1-47 + Olaparib; first compound 8 µM) | relative viability (IU1-47 + Pictilisib; first compound 0.08 µM) | relative viability (IU1-47 + Pictilisib; first compound 0.253 µM) | relative viability (IU1-47 + Pictilisib; first compound 0.8 µM) | relative viability (IU1-47 + Pictilisib; first compound 2.53 µM) | relative viability (IU1-47 + Pictilisib; first compound 8 µM) | relative viability (FG-4592 + Dasatinib; first compound 0.08 µM) | relative viability (FG-4592 + Dasatinib; first compound 0.253 µM) | relative viability (FG-4592 + Dasatinib; first compound 0.8 µM) | relative viability (FG-4592 + Dasatinib; first compound 2.53 µM) | relative viability (FG-4592 + Dasatinib; first compound 8 µM) | relative viability (IU1-47 + Bortezomib; first compound 0.08 µM) | relative viability (IU1-47 + Bortezomib; first compound 0.253 µM) | relative viability (IU1-47 + Bortezomib; first compound 0.8 µM) | relative viability (IU1-47 + Bortezomib; first compound 2.53 µM) | relative viability (IU1-47 + Bortezomib; first compound 8 µM) | relative viability (IU1-47 + Olaparib; first compound 2.53 µM) |
| --- | --- | --- | --- | --- | --- | --- | --- | --- | --- | --- | --- | --- | --- | --- | --- | --- | --- | --- | --- | --- |
| NCI-H1355 | 0.781 | 0.826 | 0.751 | 0.781 | 0.489 | 0.457 | 0.363 | 0.251 | 0.415 | 0.763 | 0.638 | 0.476 | 0.553 | 0.554 | 1.3 | 1.21 | 1.33 | 0.978 | 1.16 |  |
| NCI-H1437 | 0.623 | 0.615 | 0.618 | 0.549 | 0.403 | 0.428 | 0.423 | 0.413 | 0.35 | 0.409 | 0.309 | 0.335 | 0.392 | 0.345 | 0.599 | 0.496 | 0.495 | 0.486 | 0.469 | 0.633 |
| NCI-H1650 | 0.756 | 0.797 | 0.736 | 0.797 | 0.634 | 0.587 | 0.682 | 0.295 | 0.27 | 0.304 | 0.361 | 0.281 | 0.295 | 0.342 | 0.194 | 0.171 | 0.22 | 0.203 | 0.195 | 0.968 |
| NCI-H1651 | 0.155 | 0.162 | 0.17 | 0.185 | 0.526 | 0.575 | 0.573 |  | 0.468 | 0.416 | 0.439 | 0.356 | 0.325 | 0.367 | 0.988 | 0.977 | 0.995 | 0.946 | 0.89 | 0.183 |
| NCI-H1666 | 0.757 | 0.681 | 0.79 | 0.759 | 0.436 | 0.452 | 0.455 | 0.448 | 0.407 | 0.812 | 0.792 | 0.801 | 0.794 | 0.808 | 0.811 | 0.831 | 0.926 | 0.728 | 0.727 | 0.713 |
| NCI-H1734 | 0.669 | 0.75 | 0.631 | 0.656 | 0.463 | 0.442 | 0.464 |  | 0.427 | 0.409 | 0.465 | 0.444 | 0.454 | 0.401 | 0.936 | 0.93 | 0.906 |  | 0.874 | 0.608 |
| NCI-H1755 | 0.914 | 0.872 | 0.883 | 0.829 | 0.433 | 0.419 | 0.503 | 0.334 | 0.318 | 0.416 | 0.435 | 0.34 | 0.45 | 0.406 | 1.15 | 1.06 | 1.03 | 1.09 | 0.92 | 0.948 |
| NCI-H1792 | 0.659 | 0.481 | 0.365 | 0.215 | 0.26 | 0.318 | 0.253 | 0.165 | 0.286 | 0.871 | 0.72 | 0.846 | 0.668 | 0.748 | 1.03 | 1.07 | 1.1 | 0.879 | 0.662 | 0.384 |
| NCI-H1915 | 0.251 | 0.267 | 0.267 | 0.261 | 0.854 | 0.915 | 0.977 |  | 0.985 | 0.324 | 0.283 | 0.286 | 0.31 | 0.257 | 1.02 | 1.05 | 1.04 |  | 1.02 | 0.252 |
| NCI-H1975 | 0.858 | 0.773 | 0.748 | 0.78 | 0.274 | 0.293 | 0.305 | 0.281 | 0.256 | 0.416 | 0.313 | 0.351 | 0.277 | 0.366 | 0.375 | 0.408 | 0.455 | 0.308 | 0.317 | 1.02 |
| NCI-H1993 | 1.22 | 1.01 | 1.08 | 1.14 | 0.899 | 0.769 | 0.86 | 0.913 | 0.821 | 0.513 | 0.631 | 0.473 | 0.547 | 0.396 | 1.26 | 1.25 | 1.18 | 1.37 | 1.18 | 1.08 |
| NCI-H2009 | 0.662 | 0.678 | 0.612 | 0.65 | 0.876 | 0.948 | 0.815 | 0.369 | 0.882 | 0.323 | 0.172 | 0.267 | 0.283 | 0.27 | 1.11 | 1.13 | 0.998 | 0.513 | 1.05 | 0.804 |
| NCI-H2023 | 0.454 | 0.639 | 0.49 | 0.479 | 0.22 | 0.214 | 0.274 | 0.178 | 0.182 | 0.612 | 0.529 | 0.54 | 0.522 | 0.377 | 0.94 | 1.15 | 1 | 0.481 | 1.12 | 0.44 |
| NCI-H2085 | 0.777 | 0.763 | 0.747 | 0.742 | 0.445 | 0.426 | 0.422 | 0.47 | 0.447 | 0.17 | 0.228 | 0.196 | 0.254 | 0.264 | 0.969 | 0.968 | 1.06 | 0.948 | 0.944 | 0.768 |
| NCI-H2087 | 0.587 | 0.633 | 0.563 | 0.476 | 0.884 | 0.865 | 1.11 | 0.452 | 0.83 | 0.793 | 0.864 | 0.862 | 0.861 | 0.757 | 1.12 | 0.978 | 0.93 | 0.914 | 0.616 | 0.646 |
| NCI-H2126 | 0.972 | 0.945 | 0.89 | 0.762 | 0.47 | 0.477 | 0.52 | 0.382 | 0.493 | 0.642 | 0.578 | 0.476 | 0.506 | 0.384 | 1.17 | 1.18 | 1.19 | 0.894 | 1.04 | 0.898 |
| NCI-H2228 | 0.738 | 0.575 | 0.596 | 0.504 | 0.497 | 0.506 | 0.28 | 0.28 | 0.229 | 0.569 | 0.411 | 0.548 | 0.475 | 0.489 | 1.25 | 0.922 | 0.949 | 1.1 | 0.932 | 0.869 |
| NCI-H2347 | 0.652 | 0.607 | 0.628 | 0.603 | 0.505 | 0.651 | 0.446 | 0.448 | 0.457 | 0.323 |  | 0.263 | 0.284 | 0.279 | 0.913 | 0.76 | 0.892 | 0.827 | 0.746 | 0.562 |
| NCI-H2405 | 0.876 | 0.871 | 0.956 | 0.945 | 0.552 | 0.49 | 0.524 |  | 0.431 | 0.218 |  | 0.231 | 0.184 | 0.204 | 1.05 | 0.876 | 1.07 | 0.894 | 0.994 | 0.91 |
| NCI-H3122 | 0.644 | 0.665 | 0.692 | 0.696 | 0.556 | 0.615 | 0.666 | 0.625 | 0.581 | 0.737 | 0.824 | 0.877 | 0.983 | 0.563 | 0.962 | 1.02 | 1.08 | 1.09 | 0.996 | 0.692 |
| PC-3 [JPC-3] | 1.19 | 1.2 | 1.14 | 1.04 | 0.756 | 0.745 | 0.852 |  | 0.734 | 1.04 | 0.92 | 0.896 | 1.05 | 0.954 | 0.909 | 0.805 | 0.841 |  | 0.885 | 1.11 |
| PC-14 | 0.197 | 0.308 | 0.204 | 0.233 | 0.896 | 0.706 | 0.673 | 0.82 | 0.437 | 0.274 | 0.195 | 0.275 | 0.311 | 0.343 | 1.12 | 0.833 | 0.957 | 0.942 | 0.697 | 0.238 |
| RERF-LC-KJ | 0.867 | 0.916 | 0.894 | 0.789 | 0.538 | 0.659 | 0.41 | 0.489 | 0.595 | 0.91 | 0.701 | 0.739 | 0.836 | 0.678 | 1.16 | 1.18 | 1.12 | 1.14 | 1.06 | 0.943 |
| SK-LU-1 | 0.663 | 0.444 | 0.462 | 0.388 | 0.668 | 0.728 | 0.578 | 0.58 | 0.382 | 0.167 | 0.17 | 0.15 | 0.159 | 0.151 | 1.22 | 1.2 | 1.4 | 1.03 | 1.05 | 0.55 |
| SW 1573 | 0.592 | 0.462 | 0.445 | 0.501 | 0.524 | 0.563 | 0.391 | 0.553 | 0.471 | 0.528 | 0.344 | 0.522 | 0.354 | 0.406 | 1.15 | 1.04 | 1.41 | 1.3 | 0.861 | 0.453 |
| UMC-11 | 0.402 | 0.429 | 0.368 | 0.373 | 0.678 | 0.75 | 0.868 | 1.01 | 0.743 | 0.439 | 0.46 | 0.447 | 0.417 | 0.493 | 0.653 | 0.618 | 0.673 | 1.04 | 0.575 | 0.328 |
